In US20230111310A1, “CARBOXYLIC ACID DERIVATIVE-SUBSTITUTED IMINO ARYL COMPOUND, PREPARATION METHOD THEREFOR, HERBICIDAL COMPOSITION AND USE THEREOF” (Qingdao Kingagroot Chemical Compound Co., Ltd., priority 2020, published 2023):

Assays:
Assay type in all cases: in vivo
[1] = tested on: Abutilon theophrasti; test: Weeding effect in post-emergence stage; settings: level of fresh weight growth control rate
How it was run: (§1)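 Weeds were treated post-emergence at 2-3 leaves with compound doses from 7.5 up to 500 g/ha, formulated in acetone–Tween 80 with methyl oleate synergist. Efficacy was assessed as growth control after 3 weeks.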

[2] = tested on: Alopecurus japonicus; test: Weeding effect in post-emergence stage; settings: level of fresh weight growth control rate
How it was run: as §1

[3] = tested on: Digitaria sanguinalis; test: Weeding effect in post-emergence stage; settings: level of fresh weight growth control rate
How it was run: as §1

[4] = tested on: Eleusine indica; test: Weeding effect in post-emergence stage; settings: for Weeding effect in post-emergence stage, Eleusine indica: level of fresh weight growth control rate
How it was run: as §1

[5] = tested on: Setaria viridis; test: Weeding effect in post-emergence stage; settings: level of fresh weight growth control rate
How it was run: as §1

[6] = tested on: Amaranthus retroflexus; test: Weeding effect in post-emergence stage; settings: 7.5 g/ha, 3 weeks
How it was run: as §1

[7] = tested on: Echinochloa crusgalli; test: Weeding effect in post-emergence stage; settings: for Weeding effect in post-emergence stage, Echinochloa crusgalli: level of fresh weight growth control rate
How it was run: as §1

[8] = tested on: Abutilon theophrasti; test: Weeding effect in pre-emergence stage; settings: 4 weeks
How it was run: (§2)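 Test compounds were dissolved in acetone with tween 80, diluted with water and sprayed right after sowing, with seeds covered by 0.5-2 cm of soil. Rates were 500 to 7.5 g/ha. Growth control was scored against activity-level criteria after 4 weeks in the greenhouse.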

[9] = tested on: Amaranthus retroflexus; test: Weeding effect in pre-emergence stage; settings: 4 weeks
How it was run: as §2

[10] = tested on: Capsella bursa-pastoris; test: Weeding effect in pre-emergence stage; settings: 4 weeks
How it was run: as §2

[11] = tested on: Descurainia sophia; test: Weeding effect in pre-emergence stage; settings: 4 weeks
How it was run: as §2

[12] = tested on: Setaria viridis; test: Weeding effect in pre-emergence stage; settings: 4 weeks
How it was run: as §2

[13] = tested on: Veronica didyma Tenore; test: Weeding effect in pre-emergence stage; settings: 4 weeks
How it was run: as §2

[14] = tested on: Peanut; test: Pre-emergence stage, crop selectivity; settings: 4 weeks
How it was run: as §2

[15] = tested on: Soybeans; test: Pre-emergence stage, crop selectivity; settings: 4 weeks
How it was run: as §2

[16] = tested on: corn; test: Pre-emergence stage, crop selectivity; settings: 4 weeks
How it was run: as §2

[17] = tested on: cotton; test: Pre-emergence stage, crop selectivity; settings: 4 weeks
How it was run: as §2

[18] = tested on: Leptochloa chinensis; test: Weed control effect evaluation in rice field; settings: rice field pot, 30 g/ha, 14 days after treatment
Text: (§3) The activity level criteria for plant damage (i.e., growth control rate) are as follows:
(§4) Rice field soil was loaded into a 1/1,000,000 ha pot. The seeds of Echinochloa crusgalli. Scirpus juncoides. Bidens tripartita L., Monochoria vaginalis, and Leptochloa chinensis were sowed and gently covered with soil, then left to stand still in greenhouse in the state of 0.5-1 cm of water storage. The tuber of Sagittaria trifolia was planted in the next day or 2 days later. It was kept at 3-4 cm of water storage thereafter. The weeds were treated by dripping the WP or SC water diluents prepared according to the common preparation method of the compounds of the present invention with pipette homogeneously to achieve specified effective amount when Echinochloa crusgalli. Scirpus juncoides, Bidens tripartita L., Monochoria vaginalis, and Leptochloa chinensis reached 0.5 leaf stage and Sagittaria trifolia reached the time point of primary leaf stage.
(§5) The fertility condition of Echinochloa crusgalli. Scirpus juncoides. Bidens tripartita L., Monochoria vaginalis, Leptochloa chinensis and Sagittaria trifolia 14 days after the treatment of the compound of the invention and the fertility condition of rice 21 days after the treatment of the compound of the invention respectively with the naked eye. Evaluate the weed control effect with the above activity standard level. Many compounds show excellent activity and selectivity.

[19] = tested on: Monochoria vaginalis; test: Weed control effect evaluation in rice field; settings: rice field pot, 30 g/ha, 14 days after treatment
Text: as §3, §4, §5

[20] = tested on: Scirpus juncoides; test: Weed control effect evaluation in rice field; settings: rice field pot, 30 g/ha, 14 days after treatment
Text: as §3, §4, §5

[21] = tested on: Rice; test: Transplanted rice safety evaluation; settings: transplanted japonica rice, 30 g/ha, 21 days after treatment
Experimental: as §3
In addition, the rice field soil that loaded into the 1/1,000,000 ha pot was leveled to keep water storage at 3-4 cm depth. The 5 leaf stage rice (japonica rice) was transplanted at 3 cm of transplanting depth the next day. The compound of the present invention was treated by the same way after 5 days of transplantation.
as §5

[22] = post-emergence, 7.5 g/ha, 3 weeks

COC(=O)[C@@H](C)O/N=C/c1cc(-n2c(=O)cc(C(F)(F)F)n(C)c2=O)c(F)cc1Cl [194(R)]
Weeding effect in post-emergence stage, Abutilon theophrasti ([1]; Dose 7.5 g/ha): 5 (Level 5: growth control rate is above 85%) | Weeding effect in post-emergence stage, Abutilon theophrasti ([1]; Dose 15 g/ha): 5 (Level 5: growth control rate is above 85%) | Weeding effect in post-emergence stage, Alopecurus japonicus ([2]; Dose 7.5 g/ha): 5 (Level 5: growth control rate is above 85%) | Weeding effect in post-emergence stage, Alopecurus japonicus ([2]; Dose 15 g/ha): 5 (Level 5: growth control rate is above 85%) | Weeding effect in post-emergence stage, Digitaria sanguinalis ([3]; Dose 7.5 g/ha): 5 (Level 5: growth control rate is above 85%) | Weeding effect in post-emergence stage, Digitaria sanguinalis ([3]; Dose 15 g/ha): 5 (Level 5: growth control rate is above 85%) | Weeding effect in post-emergence stage, Eleusine indica ([4]; Dose 7.5 g/ha): 5 (Level 5: growth control rate is above 85%) | Weeding effect in post-emergence stage, Eleusine indica ([4]; Dose 15 g/ha): 5 (Level 5: growth control rate is above 85%) | activity level (growth control rate) Eleusine indica [4, 22]: 5 (Level 5: growth control rate is above 85%) | Weeding effect in post-emergence stage, Setaria viridis ([5]; Dose 7.5 g/ha): 5 (Level 5: growth control rate is above 85%) | Weeding effect in post-emergence stage, Setaria viridis ([5]; Dose 15 g/ha): 5 (Level 5: growth control rate is above 85%) | activity level (growth control rate) Amaranthus retroflexus [6]: 5 (Level 5: growth control rate is above 85%) | Weeding effect in post-emergence stage, Echinochloa crusgalli ([7]; Dose 7.5 g/ha): 5 (Level 5: growth control rate is above 85%) | Weeding effect in post-emergence stage, Echinochloa crusgalli ([7]; Dose 15 g/ha): 5 (Level 5: growth control rate is above 85%) | activity level (growth control rate) Echinochloa crusgalli [7, 22]: 5 (Level 5: growth control rate is above 85%) | activity level (growth control rate) Abutilon theophrasti ([8]; 15 g/ha): 5 (Level 5: growth control rate is above 85%) | activity level (growth control rate) Abutilon theophrasti ([8]; 30 g/ha): 5 (Level 5: growth control rate is above 85%) | activity level (growth control rate) Abutilon theophrasti ([8]; 60 g/ha): 5 (Level 5: growth control rate is above 85%) | activity level (growth control rate) Amaranthus retroflexus ([9]; 15 g/ha): 5 (Level 5: growth control rate is above 85%) | activity level (growth control rate) Amaranthus retroflexus ([9]; 30 g/ha): 5 (Level 5: growth control rate is above 85%) | activity level (growth control rate) Amaranthus retroflexus ([9]; 60 g/ha): 5 (Level 5: growth control rate is above 85%) | activity level (growth control rate) Capsella bursa-pastoris ([10]; 15 g/ha): 5 (Level 5: growth control rate is above 85%) | activity level (growth control rate) Capsella bursa-pastoris ([10]; 30 g/ha): 5 (Level 5: growth control rate is above 85%) | activity level (growth control rate) Capsella bursa-pastoris ([10]; 60 g/ha): 5 (Level 5: growth control rate is above 85%) | activity level (growth control rate) Descurainia sophia ([11]; 15 g/ha): 5 (Level 5: growth control rate is above 85%) | activity level (growth control rate) Descurainia sophia ([11]; 30 g/ha): 5 (Level 5: growth control rate is above 85%) | activity level (growth control rate) Descurainia sophia ([11]; 60 g/ha): 5 (Level 5: growth control rate is above 85%) | activity level (growth control rate) Setaria viridis ([12]; 15 g/ha): 5 (Level 5: growth control rate is above 85%) | activity level (growth control rate) Setaria viridis ([12]; 30 g/ha): 5 (Level 5: growth control rate is above 85%) | activity level (growth control rate) Setaria viridis ([12]; 60 g/ha): 5 (Level 5: growth control rate is above 85%) | activity level (growth control rate) Veronica didyma Tenore ([13]; 15 g/ha): 5 (Level 5: growth control rate is above 85%) | activity level (growth control rate) Veronica didyma Tenore ([13]; 30 g/ha): 5 (Level 5: growth control rate is above 85%) | activity level (growth control rate) Veronica didyma Tenore ([13]; 60 g/ha): 5 (Level 5: growth control rate is above 85%) | plant damage level Peanut ([14]; 15 g/ha): 0 (Level 0: growth control rate is less than 5%) | plant damage level Peanut ([14]; 30 g/ha): 0 (Level 0: growth control rate is less than 5%) | plant damage level Peanut ([14]; 60 g/ha): 0 (Level 0: growth control rate is less than 5%) | plant damage level Soybeans ([15]; 15 g/ha): 0 (Level 0: growth control rate is less than 5%) | plant damage level Soybeans ([15]; 30 g/ha): 0 (Level 0: growth control rate is less than 5%) | plant damage level Soybeans ([15]; 60 g/ha): 0 (Level 0: growth control rate is less than 5%) | plant damage level Corn ([16]; 15 g/ha): 0 (Level 0: growth control rate is less than 5%) | plant damage level Corn ([16]; 30 g/ha): 0 (Level 0: growth control rate is less than 5%) | plant damage level Corn ([16]; 60 g/ha): 0 (Level 0: growth control rate is less than 5%) | plant damage level Cotton ([17]; 15 g/ha): 0 (Level 0: growth control rate is less than 5%) | plant damage level Cotton ([17]; 30 g/ha): 0 (Level 0: growth control rate is less than 5%) | plant damage level Cotton ([17]; 60 g/ha): 0 (Level 0: growth control rate is less than 5%) | activity level (weed control effect) Leptochloa chinensis [18]: 5 (Level 5: growth control rate is above 85%) | activity level (weed control effect) Monochoria vaginalis [19]: 5 (Level 5: growth control rate is above 85%) | activity level (weed control effect) Scirpus juncoides [20]: 5 (Level 5: growth control rate is above 85%) | plant damage level Rice [21]: 0 (Level 0: growth control rate is less than 5%)
